Tests used:
[1] = biological target: T1, Aurora kinase A (Homo sapiens) (UniProt O14965); test: Inhibition of human Aurora A using H-LRRASLG as substrate at 1 uM in presence of 32P-ATP by Hotspot assay relative to control; values are per cent of control
T1 sequence (whole entry): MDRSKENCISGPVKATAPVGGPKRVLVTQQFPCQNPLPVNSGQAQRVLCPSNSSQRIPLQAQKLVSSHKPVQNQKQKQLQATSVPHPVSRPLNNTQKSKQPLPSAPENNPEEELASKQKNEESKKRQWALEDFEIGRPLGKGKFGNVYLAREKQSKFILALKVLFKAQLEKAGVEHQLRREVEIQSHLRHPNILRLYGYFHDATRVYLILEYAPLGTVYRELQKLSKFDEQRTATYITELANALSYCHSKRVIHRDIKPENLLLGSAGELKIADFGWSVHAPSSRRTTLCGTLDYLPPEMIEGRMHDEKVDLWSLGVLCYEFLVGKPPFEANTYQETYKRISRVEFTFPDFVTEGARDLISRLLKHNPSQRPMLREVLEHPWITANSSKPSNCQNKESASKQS

[2] = biological target: Phosphorylase b kinase gamma catalytic chain, skeletal muscle/heart isoform (Homo sapiens) (UniProt Q16816); test: Inhibition of human PHKg1 using KKLNRTLSFAEPG as substrate at 1 uM in presence of 32P-ATP by Hotspot assay relative to control; values are per cent of control
Sequence of Phosphorylase b kinase gamma catalytic chain, skeletal muscle/heart isoform (Homo sapiens) (Q16816 whole entry, looked up, canonical isoform): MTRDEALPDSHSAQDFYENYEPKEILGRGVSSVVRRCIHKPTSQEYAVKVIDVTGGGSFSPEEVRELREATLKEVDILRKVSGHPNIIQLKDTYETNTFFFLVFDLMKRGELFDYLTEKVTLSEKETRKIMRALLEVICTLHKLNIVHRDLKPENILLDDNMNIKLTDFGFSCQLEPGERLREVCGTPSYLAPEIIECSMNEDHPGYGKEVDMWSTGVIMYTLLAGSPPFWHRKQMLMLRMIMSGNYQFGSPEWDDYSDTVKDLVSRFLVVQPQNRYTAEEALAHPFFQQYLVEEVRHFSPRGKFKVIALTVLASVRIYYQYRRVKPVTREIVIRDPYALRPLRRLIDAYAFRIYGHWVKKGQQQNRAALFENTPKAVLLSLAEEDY

[3] = biological target: Calcium/calmodulin-dependent protein kinase type II subunit gamma (Homo sapiens) (UniProt Q13555); test: Inhibition of human CAMK2g using KKLNRTLSFAEPG as substrate at 1 uM in presence of 32P-ATP by Hotspot assay relative to control; values are per cent of control
Sequence of Calcium/calmodulin-dependent protein kinase type II subunit gamma (Homo sapiens) (Q13555 whole entry): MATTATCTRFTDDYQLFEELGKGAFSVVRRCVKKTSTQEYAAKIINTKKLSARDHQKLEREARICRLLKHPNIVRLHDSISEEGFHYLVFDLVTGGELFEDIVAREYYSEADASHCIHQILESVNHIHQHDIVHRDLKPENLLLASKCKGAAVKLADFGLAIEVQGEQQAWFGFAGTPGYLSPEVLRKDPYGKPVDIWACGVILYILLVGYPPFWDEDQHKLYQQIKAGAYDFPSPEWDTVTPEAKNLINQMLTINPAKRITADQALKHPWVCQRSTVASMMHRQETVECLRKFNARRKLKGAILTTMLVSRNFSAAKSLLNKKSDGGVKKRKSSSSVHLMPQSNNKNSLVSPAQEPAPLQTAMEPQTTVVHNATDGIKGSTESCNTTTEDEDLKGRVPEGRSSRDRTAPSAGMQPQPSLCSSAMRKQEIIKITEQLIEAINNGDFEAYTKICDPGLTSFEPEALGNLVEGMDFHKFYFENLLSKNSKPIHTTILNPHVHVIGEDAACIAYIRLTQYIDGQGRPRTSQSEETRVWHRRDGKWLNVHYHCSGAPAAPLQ

[4] = biological target: Insulin-like growth factor 1 receptor (Homo sapiens) (UniProt P08069); test: Inhibition of human IGF1R using KKKSPGEYVNIEFG as substrate at 1 uM in presence of 32P-ATP by Hotspot assay relative to control; values are per cent of control
Sequence of Insulin-like growth factor 1 receptor (Homo sapiens) (P08069 31-736 limits assumed): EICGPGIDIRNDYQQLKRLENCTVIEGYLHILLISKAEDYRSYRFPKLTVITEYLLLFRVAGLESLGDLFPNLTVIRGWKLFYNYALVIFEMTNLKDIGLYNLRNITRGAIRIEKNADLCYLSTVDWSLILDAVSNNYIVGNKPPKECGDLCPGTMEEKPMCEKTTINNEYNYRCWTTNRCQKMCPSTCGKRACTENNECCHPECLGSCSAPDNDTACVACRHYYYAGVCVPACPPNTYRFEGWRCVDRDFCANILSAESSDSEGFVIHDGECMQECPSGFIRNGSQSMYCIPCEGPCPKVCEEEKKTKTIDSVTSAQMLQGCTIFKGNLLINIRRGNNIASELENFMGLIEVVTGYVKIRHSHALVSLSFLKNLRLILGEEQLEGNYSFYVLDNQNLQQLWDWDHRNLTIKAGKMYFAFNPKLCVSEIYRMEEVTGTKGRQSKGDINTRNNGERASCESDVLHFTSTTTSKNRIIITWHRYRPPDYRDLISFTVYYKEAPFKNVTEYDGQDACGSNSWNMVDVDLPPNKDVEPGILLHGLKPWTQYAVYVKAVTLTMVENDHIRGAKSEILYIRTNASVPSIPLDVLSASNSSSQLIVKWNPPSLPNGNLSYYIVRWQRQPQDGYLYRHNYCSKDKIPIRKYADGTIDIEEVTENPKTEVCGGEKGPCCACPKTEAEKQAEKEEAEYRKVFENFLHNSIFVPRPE
Sequence of Insulin-like growth factor 1 receptor (Homo sapiens) (P08069 741-1367 limits assumed): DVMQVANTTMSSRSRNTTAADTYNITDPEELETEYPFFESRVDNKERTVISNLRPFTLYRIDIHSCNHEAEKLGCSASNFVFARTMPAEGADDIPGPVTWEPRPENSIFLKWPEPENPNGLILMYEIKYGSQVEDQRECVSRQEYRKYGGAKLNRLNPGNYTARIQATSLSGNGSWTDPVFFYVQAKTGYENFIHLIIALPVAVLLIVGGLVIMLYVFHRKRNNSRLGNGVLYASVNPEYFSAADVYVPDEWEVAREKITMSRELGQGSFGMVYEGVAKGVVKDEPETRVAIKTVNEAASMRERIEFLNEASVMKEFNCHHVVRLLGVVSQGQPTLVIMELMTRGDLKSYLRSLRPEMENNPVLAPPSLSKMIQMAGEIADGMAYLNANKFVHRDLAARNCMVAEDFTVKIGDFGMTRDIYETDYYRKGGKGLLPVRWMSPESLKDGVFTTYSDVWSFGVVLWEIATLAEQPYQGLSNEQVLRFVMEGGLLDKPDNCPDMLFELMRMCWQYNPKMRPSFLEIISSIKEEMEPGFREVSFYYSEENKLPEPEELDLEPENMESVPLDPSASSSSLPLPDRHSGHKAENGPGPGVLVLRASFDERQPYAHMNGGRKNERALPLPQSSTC

[5] = biological target: Serine/threonine-protein kinase N1 (Homo sapiens) (UniProt Q16512); test: Inhibition of human PKN1/PRK1 using KKLNRTLSVA as substrate at 1 uM in presence of 32P-ATP by Hotspot assay relative to control; values are per cent of control
Sequence of Serine/threonine-protein kinase N1 (Homo sapiens) (Q16512 2-942 limits assumed): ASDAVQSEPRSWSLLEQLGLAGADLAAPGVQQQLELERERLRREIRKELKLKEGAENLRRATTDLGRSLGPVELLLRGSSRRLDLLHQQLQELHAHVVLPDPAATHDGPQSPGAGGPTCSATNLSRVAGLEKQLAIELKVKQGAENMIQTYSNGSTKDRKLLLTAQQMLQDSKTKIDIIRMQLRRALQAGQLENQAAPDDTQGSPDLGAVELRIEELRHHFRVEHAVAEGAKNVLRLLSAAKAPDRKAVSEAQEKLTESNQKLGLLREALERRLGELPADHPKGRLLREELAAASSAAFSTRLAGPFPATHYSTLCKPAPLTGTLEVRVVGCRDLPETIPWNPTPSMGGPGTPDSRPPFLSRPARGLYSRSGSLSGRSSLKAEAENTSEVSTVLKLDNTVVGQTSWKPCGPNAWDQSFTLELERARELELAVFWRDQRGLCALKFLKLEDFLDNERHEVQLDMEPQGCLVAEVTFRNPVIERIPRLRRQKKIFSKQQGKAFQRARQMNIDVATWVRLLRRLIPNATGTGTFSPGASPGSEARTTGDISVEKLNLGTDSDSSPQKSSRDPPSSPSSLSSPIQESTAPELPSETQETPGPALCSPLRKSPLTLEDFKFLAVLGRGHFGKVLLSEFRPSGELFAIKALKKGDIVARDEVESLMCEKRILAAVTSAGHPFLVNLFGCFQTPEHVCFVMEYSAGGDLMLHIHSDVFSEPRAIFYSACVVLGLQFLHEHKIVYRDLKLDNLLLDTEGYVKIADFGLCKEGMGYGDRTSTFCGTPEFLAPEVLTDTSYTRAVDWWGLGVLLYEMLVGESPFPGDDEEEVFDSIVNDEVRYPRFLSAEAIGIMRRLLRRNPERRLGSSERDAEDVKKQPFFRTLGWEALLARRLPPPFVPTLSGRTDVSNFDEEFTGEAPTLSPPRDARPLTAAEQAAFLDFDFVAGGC

[6] = biological target: Tyrosine-protein kinase Blk (Homo sapiens) (UniProt P51451); test: Inhibition of human BLK using poly[Glu:Tyr] (4:1) as substrate at 1 uM in presence of 32P-ATP by Hotspot assay relative to control; values are per cent of control
Sequence of Tyrosine-protein kinase Blk (Homo sapiens) (P51451 2-505 limits assumed): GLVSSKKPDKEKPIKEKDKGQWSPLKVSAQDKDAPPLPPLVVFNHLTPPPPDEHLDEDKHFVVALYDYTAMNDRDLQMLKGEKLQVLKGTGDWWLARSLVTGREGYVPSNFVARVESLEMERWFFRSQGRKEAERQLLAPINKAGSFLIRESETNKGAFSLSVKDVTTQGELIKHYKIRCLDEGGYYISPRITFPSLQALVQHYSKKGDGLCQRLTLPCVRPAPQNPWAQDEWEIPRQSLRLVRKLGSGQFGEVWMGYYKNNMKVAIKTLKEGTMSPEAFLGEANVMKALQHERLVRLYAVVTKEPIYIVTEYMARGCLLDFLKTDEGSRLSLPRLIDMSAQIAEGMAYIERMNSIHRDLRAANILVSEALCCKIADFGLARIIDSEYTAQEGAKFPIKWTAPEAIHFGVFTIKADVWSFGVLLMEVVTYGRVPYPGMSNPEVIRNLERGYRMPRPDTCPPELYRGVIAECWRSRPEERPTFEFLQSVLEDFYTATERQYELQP

[7] = biological target: T2, Serine/threonine-protein kinase Nek9 (Homo sapiens) (UniProt Q8TD19); test: Inhibition of human NEK9 using myelin basic protein as substrate at 1 uM in presence of 32P-ATP by Hotspot assay relative to control; values are per cent of control
T2 sequence (whole entry): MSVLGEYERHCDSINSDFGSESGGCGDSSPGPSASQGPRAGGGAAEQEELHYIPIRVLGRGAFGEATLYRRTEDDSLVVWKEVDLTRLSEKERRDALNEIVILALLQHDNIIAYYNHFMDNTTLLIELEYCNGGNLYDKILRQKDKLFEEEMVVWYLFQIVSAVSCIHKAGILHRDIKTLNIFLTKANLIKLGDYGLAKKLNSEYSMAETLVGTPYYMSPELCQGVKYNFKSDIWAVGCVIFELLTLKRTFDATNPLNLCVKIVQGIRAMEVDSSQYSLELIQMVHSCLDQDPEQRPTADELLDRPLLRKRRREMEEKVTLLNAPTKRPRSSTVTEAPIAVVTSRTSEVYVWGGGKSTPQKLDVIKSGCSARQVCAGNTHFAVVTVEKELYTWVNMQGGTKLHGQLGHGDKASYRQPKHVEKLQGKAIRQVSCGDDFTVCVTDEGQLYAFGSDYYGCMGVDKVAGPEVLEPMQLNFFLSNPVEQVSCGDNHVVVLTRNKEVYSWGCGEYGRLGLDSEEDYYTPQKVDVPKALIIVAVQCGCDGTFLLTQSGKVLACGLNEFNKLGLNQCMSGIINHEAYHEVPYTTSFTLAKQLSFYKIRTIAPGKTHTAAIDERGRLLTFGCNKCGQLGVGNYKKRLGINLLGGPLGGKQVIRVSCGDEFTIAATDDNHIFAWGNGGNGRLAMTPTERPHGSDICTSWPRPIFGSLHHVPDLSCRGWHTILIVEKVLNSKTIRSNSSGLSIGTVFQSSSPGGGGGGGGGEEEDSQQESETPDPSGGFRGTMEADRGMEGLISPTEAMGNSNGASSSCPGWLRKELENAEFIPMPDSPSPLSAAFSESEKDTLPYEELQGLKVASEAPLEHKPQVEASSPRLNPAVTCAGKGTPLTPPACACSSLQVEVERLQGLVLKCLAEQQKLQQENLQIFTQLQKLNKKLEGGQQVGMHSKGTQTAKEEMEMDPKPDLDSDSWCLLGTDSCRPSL

[8] = biological target: Interleukin-1 receptor-associated kinase 1 (Homo sapiens) (UniProt P51617); test: Inhibition of human IRAK1 using myelin basic protein as substrate at 1 uM in presence of 32P-ATP by Hotspot assay relative to control; values are per cent of control
Sequence of Interleukin-1 receptor-associated kinase 1 (Homo sapiens) (P51617 whole entry, looked up): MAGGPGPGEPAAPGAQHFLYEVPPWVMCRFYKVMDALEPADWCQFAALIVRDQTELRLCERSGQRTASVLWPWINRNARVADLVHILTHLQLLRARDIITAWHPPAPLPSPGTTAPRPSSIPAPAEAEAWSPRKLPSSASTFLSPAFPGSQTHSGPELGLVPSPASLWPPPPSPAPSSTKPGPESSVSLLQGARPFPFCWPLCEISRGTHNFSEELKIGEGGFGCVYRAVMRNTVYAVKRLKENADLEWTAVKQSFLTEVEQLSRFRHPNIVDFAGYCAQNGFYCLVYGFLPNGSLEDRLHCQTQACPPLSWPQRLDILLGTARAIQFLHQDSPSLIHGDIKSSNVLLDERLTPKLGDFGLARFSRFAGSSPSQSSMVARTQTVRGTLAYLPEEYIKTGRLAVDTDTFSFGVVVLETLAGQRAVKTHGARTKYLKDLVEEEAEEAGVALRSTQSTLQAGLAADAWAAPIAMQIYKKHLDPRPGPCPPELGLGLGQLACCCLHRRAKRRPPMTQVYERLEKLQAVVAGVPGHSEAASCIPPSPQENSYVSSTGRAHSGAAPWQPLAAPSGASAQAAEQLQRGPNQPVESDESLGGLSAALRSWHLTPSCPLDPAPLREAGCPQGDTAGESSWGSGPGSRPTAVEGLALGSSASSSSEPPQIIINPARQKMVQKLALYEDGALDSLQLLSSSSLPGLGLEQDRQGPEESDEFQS

[9] = biological target: T3, Serine/threonine-protein kinase Chk1 (Homo sapiens) (UniProt O14757); test: Inhibition of human CHK1 using KKKVSRSGLYRSPSMPENLNRPR as substrate at 1 uM in presence of 32P-ATP by Hotspot assay relative to control; values are per cent of control
T3 sequence (whole entry): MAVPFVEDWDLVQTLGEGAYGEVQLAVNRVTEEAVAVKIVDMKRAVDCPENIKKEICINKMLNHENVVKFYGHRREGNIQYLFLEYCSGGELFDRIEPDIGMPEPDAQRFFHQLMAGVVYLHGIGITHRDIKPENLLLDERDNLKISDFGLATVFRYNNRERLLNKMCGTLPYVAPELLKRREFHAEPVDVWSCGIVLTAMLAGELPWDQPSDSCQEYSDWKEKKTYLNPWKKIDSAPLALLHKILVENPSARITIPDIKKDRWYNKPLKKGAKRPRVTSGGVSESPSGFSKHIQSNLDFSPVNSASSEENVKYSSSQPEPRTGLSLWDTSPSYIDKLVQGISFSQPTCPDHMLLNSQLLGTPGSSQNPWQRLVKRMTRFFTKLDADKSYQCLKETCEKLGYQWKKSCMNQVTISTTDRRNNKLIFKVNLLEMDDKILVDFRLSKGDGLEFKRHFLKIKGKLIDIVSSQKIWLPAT

Q: What does the source list for CC(C)S(=O)(=O)c1ccc2nccc(Nc3ccc4scnc4c3)c2c1?
A: residual activity [1]: 95.9%; residual activity [2]: 94.8%; residual activity [3]: 98.3%; residual activity [4]: 100%; residual activity [5]: 95.3%; residual activity [6]: 62.8%; residual activity [7]: 86.7%; residual activity [8]: 102%; residual activity [9]: 100%

Q: Which residual activity [1] does the source give for Cc1cc(-c2cnc(N)c3c(-c4ccc5scnc5c4)csc23)n(C)n1 here?
A: 99%

Q: What about the residual activity [2] of the same compound?
A: 96.8%

Q: What about the residual activity [3] of the same compound?
A: 82.4%

Q: And the residual activity [4]?
A: 101%

Q: And the residual activity [5]?
A: 96.7%

Q: What about the residual activity [6] of the same compound?
A: 39.3%

Q: What about the residual activity [7] of the same compound?
A: 91%

Q: What about the residual activity [8] of the same compound?
A: 90%

Q: And the residual activity [9]?
A: 100%

Q: Which residual activity [1] does the source give for CNC(=O)c1ccc2c(c1)ncn2-c1ccc(CC(=O)OC(C)(C)C)cc1 here?
A: 101%

Q: What about the residual activity [2] of the same compound?
A: 101%

Q: What about the residual activity [3] of the same compound?
A: 98.5%

Q: And the residual activity [4]?
A: 97.6%

Q: What about the residual activity [5] of the same compound?
A: 97.7%

Q: And the residual activity [6]?
A: 73.9%

Q: What about the residual activity [7] of the same compound?
A: 102%

Q: And the residual activity [8]?
A: 78.6%

Q: And the residual activity [9]?
A: 84.6%
